{
  "source": "patent EP0076622A1",
  "about": "“Anthelmintics” (BEECHAM GROUP PLC, priority 1981, dated 1983)",
  "system": "Nematospiroides dubius",
  "test": "Oral activity against experimental infections of Nematospiroides dubius in the mouse (worm numbers of treated vs untreated control animals)",
  "format": "in vivo",
  "conditions": "calculated from worm numbers of treated and control animals; for inhibition in vivo at 200 mg/kg / inhibition in vivo at 100 mg/kg: Heligmosomoides polygyrus, po",
  "experimental": "The oral activity of the following compounds, against experimental infections of Nematospiroides dubius in the mouse, was calculated from a comparison of the worm numbers of treated and control (untreated) animals.",
  "data": [
    {"molecule": "CSC(=Nc1cccc(C2CN3CCSC3=N2)c1)Nc1ccccc1", "note": "(stereo not shown) [Example 13]", "values": [
      {"measurement": "inhibition in vivo at 200 mg/kg", "setting": "Dose 200 mg/kg (p.o.)", "value": 99, "unit": "%"}
    ]},
    {"molecule": "CSC(=Nc1cccc(C2CN3CCSC3=N2)c1)Nc1ccc(F)cc1", "note": "(stereo not shown) [Example 14, S-Methyl-N-[4-fluorophenyl]-N'-[3-(6-{2,3,5,6-tetra-hydroimidazo [2,1-b]thiazolyl})phenyl]isothiourea]", "values": [
      {"measurement": "inhibition in vivo at 200 mg/kg", "setting": "Dose 200 mg/kg (p.o.)", "value": 100, "unit": "%"}
    ]},
    {"molecule": "CSC(=Nc1cccc(C2CN3CCSC3=N2)c1)Nc1cccc(F)c1", "note": "(stereo not shown) [Example 15, S-Methyl-N-[3-fluorophenyl]-N'-[3-(6-{2,3,5,6-tetra-hydroimidazo[2,1-b]thiazolyl})phenyl]isothiourea]", "values": [
      {"measurement": "inhibition in vivo at 100 mg/kg", "setting": "Dose 100 mg/kg (p.o.)", "value": 100, "unit": "%"},
      {"measurement": "inhibition in vivo at 200 mg/kg", "setting": "Dose 200 mg/kg (p.o.)", "value": 100, "unit": "%"}
    ]},
    {"molecule": "CSC(=Nc1cccc(C2CN3CCSC3=N2)c1)Nc1ccc(Cl)cc1", "note": "(stereo not shown) [Example 17, S-Methyl-N-[4-chlorophenyl]-N'-[3-(6-{2,3,5,6-tetra-hydroimidazo[2,1-b]thiazolyl})phenyl]isothiourea]", "values": [
      {"measurement": "inhibition in vivo at 200 mg/kg", "setting": "Dose 200 mg/kg (p.o.)", "value": 88, "unit": "%"}
    ]},
    {"molecule": "CSC(=Nc1cccc(C2CN3CCSC3=N2)c1)Nc1ccc(C)cc1", "note": "(stereo not shown) [Example 19, S-Methyl-N-[4-methylphe_nyl]-N'-[3-(6-{2,3,5,6-tetra-hydroimidazo[2,1-b]thiazolyl})phenyl]isothiourea]", "values": [
      {"measurement": "inhibition in vivo at 200 mg/kg", "setting": "Dose 200 mg/kg (p.o.)", "value": 0, "unit": "%"}
    ]},
    {"molecule": "CSC(=Nc1cccc(C2CN3CCSC3=N2)c1)Nc1cccc(Cl)c1", "note": "(stereo not shown) [Example 20]", "values": [
      {"measurement": "inhibition in vivo at 100 mg/kg", "setting": "Dose 100 mg/kg (p.o.)", "value": 87, "unit": "%"},
      {"measurement": "inhibition in vivo at 200 mg/kg", "setting": "Dose 200 mg/kg (p.o.)", "value": 100, "unit": "%"}
    ]},
    {"molecule": "CCSC(=Nc1cccc(C2CN3CCSC3=N2)c1)Nc1ccccc1", "note": "(stereo not shown) [Example 22, S-Ethyl-N-phenyl-N'-[3-(6{2,3,5,6-tetrahydroimidazo-[2,1-b]thiazolyl})phenyl]isothiourea]", "values": [
      {"measurement": "inhibition in vivo at 200 mg/kg", "setting": "Dose 200 mg/kg (p.o.)", "value": 92, "unit": "%"}
    ]},
    {"molecule": "CSC(=Nc1cccc(C2CN3CCSC3=N2)c1)Nc1ccc(C)c(C)c1", "note": "(stereo not shown) [Example 56]", "values": [
      {"measurement": "inhibition in vivo at 200 mg/kg", "setting": "Dose 200 mg/kg (p.o.)", "value": 0, "unit": "%"}
    ]},
    {"molecule": "CSC(=Nc1cccc(C2CN3CCSC3=N2)c1)Nc1cccc(C)c1", "note": "(stereo not shown) [Example 57]", "values": [
      {"measurement": "inhibition in vivo at 100 mg/kg", "setting": "Dose 100 mg/kg (p.o.)", "value": 40, "unit": "%"},
      {"measurement": "inhibition in vivo at 200 mg/kg", "setting": "Dose 200 mg/kg (p.o.)", "value": 100, "unit": "%"}
    ]},
    {"molecule": "CSC(=Nc1cccc(C2CN3CCSC3=N2)c1)Nc1cccc([N+](=O)[O-])c1", "note": "(stereo not shown) [Example 58]", "values": [
      {"measurement": "inhibition in vivo at 100 mg/kg", "setting": "Dose 100 mg/kg (p.o.)", "value": 95, "unit": "%"},
      {"measurement": "inhibition in vivo at 200 mg/kg", "setting": "Dose 200 mg/kg (p.o.)", "value": 95, "unit": "%"}
    ]},
    {"molecule": "CSC(=Nc1cccc(C2CN3CCSC3=N2)c1)NCc1ccccc1", "note": "(stereo not shown) [Example 75]", "values": [
      {"measurement": "inhibition in vivo at 200 mg/kg", "setting": "Dose 200 mg/kg (p.o.)", "value": 54, "unit": "%"}
    ]},
    {"molecule": "CSC(=Nc1cccc(C2CN3CCSC3=N2)c1)NC1CCCCC1", "note": "(stereo not shown) [Example 76]", "values": [
      {"measurement": "inhibition in vivo at 200 mg/kg", "setting": "Dose 200 mg/kg (p.o.)", "value": 15, "unit": "%"}
    ]},
    {"molecule": "COc1ccc(NC(=Nc2cccc(C3CN4CCSC4=N3)c2)SC)cc1", "note": "(stereo not shown) [p-C6H4OCH3]", "values": [
      {"measurement": "inhibition in vivo at 200 mg/kg", "setting": "Dose 200 mg/kg (p.o.)", "value": 59, "unit": "%"}
    ]},
    {"molecule": "S-Methyl-N-[3,4-dichlorophenyl]-N'-[3-(6{2,3,5,6-tetra- hydroimidazo[2,1-b]thiazolyl}) phenyl]isothiourea [Example 18]", "values": [
      {"measurement": "Activity %", "setting": "Dose 200 mg/kg (p.o.)", "value": 34, "unit": "%"}
    ]},
    {"molecule": "S-Methyl-N-[4-acetylphenyl]-N'-[3-(6-{2,3,5,6-tetra- hydroimidazo-[2,1-b]thiazolyl})phenyl]isothiourea [Example 25]", "values": [
      {"measurement": "Activity %", "setting": "Dose 100 mg/kg (p.o.)", "value": 93, "unit": "%"},
      {"measurement": "Activity %", "setting": "Dose 200 mg/kg (p.o.)", "value": 100, "unit": "%"}
    ]},
    {"molecule": "S-Methyl-N-[4-cyanophenyl]-N'-[3-(6-{2,3.5,6-tetra- hydroimidazo[2,1-b]thiazolyl})phenyl]isothiourea [Example 24]", "values": [
      {"measurement": "Activity %", "setting": "Dose 100 mg/kg (p.o.)", "value": 99, "unit": "%"},
      {"measurement": "Activity %", "setting": "Dose 200 mg/kg (p.o.)", "value": 100, "unit": "%"}
    ]},
    {"molecule": "S-Methyl-N-[4-nitrophenyl]-N'-[3-(6-{2,3,5,6-tetra- hydroimidaza[2,1-b]thiazolyl})phenyl]isothiourea [Example 16]", "values": [
      {"measurement": "Activity %", "setting": "Dose 50 mg/kg (p.o.)", "value": 95, "unit": "%"},
      {"measurement": "Activity %", "setting": "Dose 100 mg/kg (p.o.)", "value": 100, "unit": "%"},
      {"measurement": "Activity %", "setting": "Dose 200 mg/kg (p.o.)", "value": 100, "unit": "%"}
    ]}
  ]
}
